Experimental data: patent publication US20160038597A9, “CARRIER THAT TARGETS FUCOSYLATED MOLECULE-PRODUCING CELLS” (priority 2010, published 2016)

Columns and labels:
ASPC-1 = test: 14C-fucose binding to cells
Procedure: (§1) Binding of fucose (fucose refers to L-fucose, unless otherwise stated) to the fucosylated sugar chain high-producing cell line ASPC-1 and fucosylated sugar chain low-producing cell line PANC-1 was investigated using radiolabeled fucose.
(§2) In a 12-well culture plate, 1×10^5 cells were seeded and cultured overnight, and ^14C-fucose (specific activity: 55 mCi/mmol) diluted with BSA-PBS at a concentration of 0-200 nM was added to the cells and cultured at 4° C. for 1 hr. The cells were washed with cold BSA-PBS, lysed by 1% Triton X100/PBS-0.25% trypsin, and the radioactivity of the ^14C-fucose bound to the cell membrane was measured (FIGS. 3 and 4).
In another experiment, in a 12-well culture plate, 2×10^5 cells were seeded and cultured overnight, 10 nmol of ^14C-fucose (specific activity: 55 mCi/mmol) were added to the cells either singly or together with 1 pmol of fucose, and cultured at 4° C. for 1, 3, or 24 hr. The cells under each condition were washed with cold BSA-PBS, lysed by 1% Triton X100/PBS-0.25% trypsin, and the radioactivity of the ^14C-fucose was measured (FIG. 5).

PANC-1 = test: 14C-fucose binding to cells; conditions: 14C-fucose 0-200 nM, 4° C., 1 hr
Procedure: as §1, §2

With `C[C@H](O)[C@@H](O)[C@@H](O)[C@H](O)C=O` [fucose, L-fucose] the “binding of 14C-fucose in competition with excessive non-labeled fucose” value (ASPC-1; 10 nmol 14C-fucose with non-labeled fucose, 4° C., 1, 3 or 24 hr) was “inhibited”, the “binding of fucose to cells (affinity)” value (ASPC-1; 14C-fucose 0-200 nM, 4° C., 1 hr, compared with PANC-1) was “affinity is higher” and the “binding of fucose to cells” value (PANC-1) was “binds to ASPC-1 and PANC-1 via a receptor-like mechanism”.
